Measured values as given in patent US9365551B2, “2-(benzyloxy) benzamides as LRRK2 kinase inhibitors” (Glaxo Group Limited, priority 2010, dated 2016).
Counter-ions that a name gives are not always drawn.

Tests used:
[1] = molecular target: T1, 6His-Tev-LRRK2 (1326-2527) (Homo sapiens, UniProt Q5S007); assay: LRRK2 peptide substrate assay; format: biochemical; conditions: mean pIC50 of multiple test results
T1 construct: A LRRK2 cDNA encoding residues 1326-2527 was received from Dundee University; made in house; host or cells: Spodoptera frugiperda (Sf9) insect cells, baculovirus (pFB-HTb)
T1 sequence (Q5S007 1326-2527): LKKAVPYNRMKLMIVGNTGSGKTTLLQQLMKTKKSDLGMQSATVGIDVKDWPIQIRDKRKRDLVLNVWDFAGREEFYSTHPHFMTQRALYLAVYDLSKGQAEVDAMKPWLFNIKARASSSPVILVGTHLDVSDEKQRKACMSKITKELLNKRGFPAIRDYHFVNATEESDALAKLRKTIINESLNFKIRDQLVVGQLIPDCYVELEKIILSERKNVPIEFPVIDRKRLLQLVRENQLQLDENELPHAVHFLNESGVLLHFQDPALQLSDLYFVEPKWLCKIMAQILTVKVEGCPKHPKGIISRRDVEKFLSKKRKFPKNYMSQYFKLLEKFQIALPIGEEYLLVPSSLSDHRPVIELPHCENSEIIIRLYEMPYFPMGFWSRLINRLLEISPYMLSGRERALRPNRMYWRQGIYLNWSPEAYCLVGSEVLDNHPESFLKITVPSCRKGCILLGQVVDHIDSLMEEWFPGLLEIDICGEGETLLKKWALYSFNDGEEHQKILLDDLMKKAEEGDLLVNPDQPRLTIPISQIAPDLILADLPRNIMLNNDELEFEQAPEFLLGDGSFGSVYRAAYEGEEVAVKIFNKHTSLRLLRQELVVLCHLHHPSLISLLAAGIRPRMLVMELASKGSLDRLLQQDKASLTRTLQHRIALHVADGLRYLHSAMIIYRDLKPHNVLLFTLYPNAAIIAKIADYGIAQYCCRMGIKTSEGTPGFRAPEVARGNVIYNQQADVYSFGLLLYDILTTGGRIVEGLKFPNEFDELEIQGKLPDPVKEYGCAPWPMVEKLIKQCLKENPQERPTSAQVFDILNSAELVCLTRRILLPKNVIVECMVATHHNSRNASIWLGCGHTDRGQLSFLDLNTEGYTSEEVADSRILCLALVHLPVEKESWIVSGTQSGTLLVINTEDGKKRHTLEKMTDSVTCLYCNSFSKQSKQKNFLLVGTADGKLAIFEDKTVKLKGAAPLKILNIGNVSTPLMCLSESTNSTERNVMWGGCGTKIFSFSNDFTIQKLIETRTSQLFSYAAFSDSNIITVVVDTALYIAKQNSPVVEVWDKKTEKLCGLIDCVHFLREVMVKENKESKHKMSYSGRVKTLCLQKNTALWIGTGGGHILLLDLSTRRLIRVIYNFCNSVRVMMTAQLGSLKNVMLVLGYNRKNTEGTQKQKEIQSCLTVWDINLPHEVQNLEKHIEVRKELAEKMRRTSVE
Protocol: (§1) Compounds of formula (I) may be tested for in vitro kinase activity in accordance with the following assays, using the non natural, in vitro, substrates moesin and the Longer Biotin-LRRKtide. Moesin and a shorter version of the peptide were identified as substrates in Jaleel et al. (2007, Biochem J, 405: 307-317).
LRRK2 Peptide Substrate Assay
a) 100 nl of a 1:4 serial dilution of test compound with a top final assay concentration of 30 μM is added to certain wells in a low volume 384 well black plate. 100 nl of DMSO is used in certain wells as controls.
(§2) b) 3 μl enzyme solution (80 nM purified recombinant 6His-Tev-LRRK2 (1326-2527) in assay buffer: 50 mM Hepes (pH 7.2), 10 mM MgCl2, 150 mM NaCl, 5% glycerol, 0.0025% triton X-100 and 1 mM DTT) is added to certain wells. 3 μl assay buffer is added to certain wells as a 100% inhibition (no enzyme) control. c) After incubation at room temperature for 30 minutes, 3 μl substrate solution (2 μM Biotin-LRRKtide peptide substrate and ATP at Km in assay buffer) is added to each well. Plates are then incubated for a further 1-2 hours at room temperature (incubation time varies depending upon rate and linearity of reaction with differing enzyme batches). d) 6 μl detection solution (50 nM Streptavidin SureLight® APC (PerkinElmer), 4 nM Eu-W1024 labelled anti-rabbit IgG antibody (PerkinElmer), 1:500 dilution (dilution determined on a batch to batch basis) of Phospho-Ezrin (Thr567)/Radixin (Thr564)/Moesin (Thr558) Polyclonal Antibody (New England Biolabs) and 60 mM EDTA in buffer: 40 mM Hepes (pH 7.2), 150 mM NaCl, 0.03% BSA) is added to each well. Plates are then incubated for a further 2 hours at room temperature before reading on a suitable plate reader (Excitation 330 nm, emission 620 nm (Eu) and 665 nm (APC)). Data is analysed using ActivityBase software (IDBS). LRRK2 AlphaScreen Desensitised Protein Substrate Assay a) 100 nl of a 1:4 serial dilution of test compound with a top final assay concentration of 30 μM is added to certain wells in a low volume 384 well black plate. 100 nl of DMSO is used in certain wells as controls. b) 3 μl enzyme solution (80 nM purified recombinant 6His-Tev-LRRK2 (1326-2527) in assay buffer: 50 mM Hepes (pH 7.2), 10 mM MgCl2, 150 mM NaCl, 5% glycerol, 0.0025% triton X-100 and 1 mM DTT) is added to certain wells. 3 μl assay buffer is added to certain wells as a 100% inhibition (no enzyme) control. c) After incubation at room temperature for 30 minutes, 3 μl substrate solution (200 nM GST-PS-Moesin (400-577) and 2 mM ATP in assay buffer) is added to each well. Plates are then incubated for 20 minutes at room temperature. d) 6 μl detection solution (1:250 dilution of AlphaLisa Protein A Acceptor beads (PerkinElmer), 1:64 dilution of AlphaLisa Gluthathione Donor beads (PerkinElmer) and 1:600 dilution (dilution determined on a batch to batch basis) of Phospho-Ezrin (Thr567)/Radixin (Thr564)/Moesin (Thr558) Polyclonal Antibody (New England Biolabs) in a buffer: 50 mM Hepes (pH 7.5), 250 mM NaCl, 60 mM EDTA, 1% PEG and 0.01% Brij 35) is added to each well. Plates are then incubated for a further 2 hours at room temperature in the dark before reading on an EnVision™ plate reader with AlphaScreen HTS turbo option module and AlphaScreen settings. Data is analysed using ActivityBase software (IDBS). Pharmacological Data

[2] = molecular target: T1, 6His-Tev-LRRK2 (1326-2527); assay: LRRK2 AlphaScreen desensitised protein substrate assay; format: biochemical; conditions: mean pIC50 of multiple test results
Protocol: as §1, §2

[3] = Biotin-LRRKtide peptide substrate, ATP at Km, read-out: LRRK2 peptide substrate assay (pIC50) (converted)
[4] = stated as threshold, read-out: pIC50 in the LRRK2 peptide substrate assay (bounds) (converted)
[5] = GST-PS-Moesin (400-577) substrate, 2 mM ATP, read-out: LRRK2 alphascreen desensitized protein substrate assay (pIC50) (converted)
[6] = stated as threshold, read-out: pIC50 in the LRRK2 alphascreen desensitised protein substrate assay (bounds) (converted)

IC50 [1, 3] [nM]	IC50 [1, 4] [nM]	Compound	IC50 [2, 5] [nM]	IC50 [2, 6] [nM]
6.31	≤ 10	Cn1cc(-c2cc(C(=O)Nc3cccc(Cl)c3)c(OCc3ccc(F)cc3)cc2C(=O)N2CCOCC2)cn1 [Example 48, N-(3-chlorophenyl)-2-((4-fluorobenzyl)oxy)-5-(1-methyl-1H-pyrazol-4-yl)-4-(morpholine-4-carbonyl)benzamide]	15.8	≤ 316
	≤ 10	O=C(Nc1cccc(Cl)c1)c1cc(Cl)c(C(=O)N2CCOCC2)cc1OCc1ccccc1 [Example 45, 5-Chloro-N-(3-chlorophenyl)-4-(4-morpholinylcarbonyl)-2-[(phenylmethyl)oxy]benzamide]		≤ 316
31.6	≤ 100	O=C(Nc1cccnc1)c1cc(Cl)c(C(=O)N2CCOCC2)cc1OCc1ccccc1 [Example 44, 5-Chloro-4-(4-morpholinylcarbonyl)-2-[(phenylmethyl)oxy]-N-3-pyridinylbenzamide]	158	≤ 316
	≤ 100	Cn1cc(-c2cc(C(=O)Nc3cccc(Cl)c3)c(OCc3ccccc3)cc2CN2CCOCC2)cn1 [Example 50, 2-(benzyloxy)-N-(3-chlorophenyl)-5-(1-methyl-1H-pyrazol-4-yl)-4-(morpholinomethyl)benzamide, Hydrochloride]		
10	≤ 10	Cn1cc(-c2cc(C(=O)Nc3cccc(F)c3)c(OCc3ccc(F)cc3)cc2C(=O)N2CCOCC2)cn1 [Example 47, 2-((4-fluorobenzyl)oxy)-N-(3-fluorophenyl)-5-(1-methyl-1H-pyrazol-4-yl)-4-(morpholine-4-carbonyl)benzamide]	126	≤ 316
	≤ 100	O=C(Nc1ccnnc1)c1cc(Cl)c(C(=O)N2CCOCC2)cc1OCc1ccccc1 [Example 46, 5-Chloro-4-(4-morpholinylcarbonyl)-2-[(phenylmethyl)oxy]-N-4-pyridazinylbenzamide]		≤ 25100
	≤ 100	CN1CCN(C(=O)c2cc(OCc3ccccc3)c(C(=O)Nc3cccnc3)cc2Cl)CC1 [Example 54, 2-(benzyloxy)-5-chloro-4-(4-methylpiperazine-1-carbonyl)-N-(pyridin-3-yl)benzamide]		
	≤ 100	Cn1cc(-c2cc(C(=O)Nc3cccc(Cl)c3)c(OCc3ccccc3)cc2CN2CCOCC2)cn1 [Example 51, 2-(benzyloxy)-N-(3-chlorophenyl)-5-(1-methyl-1H-pyrazol-4-yl)-4-(morpholinomethyl)benzamide, Maleic acid salt]		

The remaining lines, values behind:

Compound	IC50 [1, 3] [nM]	IC50 [1, 4] [nM]	IC50 [2, 5] [nM]	IC50 [2, 6] [nM]
Cc1cc(OCc2ccccc2)c(C(=O)Nc2cccnc2)cc1-c1cnn(C)c1 [Example 7, 4-Methyl-5-(1-methyl-1H-pyrazol-4-yl)-2-[(phenylmethyl)oxy]-N-3-pyridinylbenzamide]	15.8	≤ 100	158	≤ 316
Cn1cc(-c2cc(C(=O)Nc3ccnnc3)c(OCc3ccccc3)cc2CN2CCOCC2)cn1 [Example 3, 5-(1-Methyl-1H-pyrazol-4-yl)-4-(4-morpholinylmethyl)-2-[(phenylmethyl)oxy]-N-4-pyridazinylbenzamide]		≤ 100		≤ 25100
O=C(Nc1cccnc1)c1cc(C(F)(F)F)c(C(=O)N2CCCCC2)cc1OCc1ccccc1 [Example 39, 2-[(Phenylmethyl)oxy]-4-(1-piperidinylcarbonyl)-N-3-pyridinyl-5-(trifluoromethyl)benzamide]	15.8	≤ 100	316	≤ 316
Cc1cc(C(=O)Nc2ccnnc2)c(OCc2ccccc2)cc1-c1cnn(C)c1 [Example 12, 5-Methyl-4-(1-methyl-1H-pyrazol-4-yl)-2-[(phenylmethyl)oxy]-N-4-pyridazinylbenzamide]	10	≤ 10	100	≤ 316
Cc1nocc1NC(=O)c1cc(-c2cnn(C)c2)c(CN2CCOCC2)cc1OCc1ccc(F)cc1F [Example 22, 2-{[(2,4-Difluorophenyl)methyl]oxy}-N-(3-methyl-4-isoxazolyl)-5-(1-methyl-1H-pyrazol-4-yl)-4-(4-morpholinylmethyl)benzamide]		> 25100		≤ 25100
Cn1cc(-c2cc(OCc3ccc(F)cc3)c(C(=O)Nc3ccnnc3)cc2CN2CCOCC2)cn1 [Example 14, 2-{[(4-Fluorophenyl)methyl]oxy}-4-(1-methyl-1H-pyrazol-4-yl)-5-(4-morpholinylmethyl)-N-4-pyridazinylbenzamide]		≤ 1260		≤ 25100
Cn1cc(-c2cc(OCc3ccc(F)cc3)c(C(=O)Nc3cccnc3)cc2CN2CCOCC2)cn1 [Example 13, 2-{[(4-Fluorophenyl)methyl]oxy}-4-(1-methyl-1H-pyrazol-4-yl)-5-(4-morpholinylmethyl)-N-3-pyridinylbenzamide]	79.4	≤ 100	794	≤ 25100
O=C(Nc1cccnc1)c1cc(C(F)(F)F)c(CN2CCOCC2)cc1OCc1ccccc1 [Example 33, 2-(Benzyloxy)-4-(morpholinomethyl)-N-(pyridin-3-yl)-5-(trifluoromethyl)benzamide]		≤ 100		≤ 316
